This series can be described thus: Accelerated stability at 56° C. of chlorobutanol and paraben test solution in untreated and fluorinated polypropylene bottles (HPLC concentration). The class given is physicochemical. How it is done:
Polypropylene bottles (dropper-type) were obtained from Owens-Brockway, Ill. (capacity 5 ml). Some of the bottles were sent to a company called Fluoro-Seal (Columbus, Ohio) where they were treated for fluorine-coating under a proprietary method. After the bottles were ‘fluorosealed’ (done at ‘level 5’) they were washed in dilute soap solution rinsed several times in de-ionized water and dried before use. The bottles were then filled with 3 ml of a chlorobutanol and paraben test solution (Table 4). Control samples of untreated polypropylene bottles filled with the same solution were also prepared. All samples were prepared in duplicate and put up on accelerated stability at 56° C. Before putting on stability, ‘0’ time-point samples from all bottles were collected and the bottles were weighed. Concentration of cholorobutanol and methyl- and propyl parabens was determined by an HPLC method. Samples were taken at 1 wk, 2 wk and 4 wks by expelling ˜50-100 mcg droplets into tared vials. Bottles were weighed before and after sampling, before returning to condition. The following terms are used in Table 4, below. PP means polypropylene (untreated). PP-FL or PP-FL5 means fluorinated polypropylene at service provider's specified level of ‘5’. LDPE is low density polyethylene (untreated). LDPE-FL5 means low density polyethylene fluorinated at service provider's specified level of ‘5’. Duplicate samples were measured.

In turn, `CCCOC(=O)c1ccc(O)cc1` [PROPYLPARABEN, propylparaben] gave a Conc. of propylparaben (bottle FL-5P P-2 (fluorinated polypropylene, level 5), time of storage 0 weeks) of 102 µg/mL; a Conc. of propylparaben (bottle FL-5P P-2 (fluorinated polypropylene, level 5), time of storage 1 week) of 95.3 µg/mL; a Conc. of propylparaben (bottle FL-5P P-2 (fluorinated polypropylene, level 5), time of storage 2 weeks) of 96.6 µg/mL; a Conc. of propylparaben (bottle FL-5P P-2 (fluorinated polypropylene, level 5), time of storage 4 weeks) of 94.6 µg/mL; a Conc. of propylparaben (bottle FL-5 PP-1 (fluorinated polypropylene, level 5), time of storage 0 weeks) of 104 µg/mL; a Conc. of propylparaben (bottle FL-5 PP-1 (fluorinated polypropylene, level 5), time of storage 1 week) of 95.3 µg/mL. Besides, the Conc. of propylparaben (bottle FL-5 PP-1 (fluorinated polypropylene, level 5), time of storage 2 weeks) amounted to 96.6 µg/mL; the Conc. of propylparaben (bottle FL-5 PP-1 (fluorinated polypropylene, level 5), time of storage 4 weeks) turned out to be 89.3 µg/mL; the Conc. of propylparaben (bottle PP-1 (untreated polypropylene), time of storage 0 weeks) came out at 103 µg/mL; the Conc. of propylparaben (bottle PP-1 (untreated polypropylene), time of storage 1 week) stood at 86.2 µg/mL; the Conc. of propylparaben (bottle PP-1 (untreated polypropylene), time of storage 2 weeks) worked out at 82.5 µg/mL; the Conc. of propylparaben (bottle PP-1 (untreated polypropylene), time of storage 4 weeks) came out at 69.5 µg/mL. Further, the Conc. of propylparaben is, setting by setting: (bottle PP-2 (untreated polypropylene), time of storage 0 weeks) 103 µg/mL; (bottle PP-2 (untreated polypropylene), time of storage 1 week) 86.9 µg/mL; (bottle PP-2 (untreated polypropylene), time of storage 2 weeks) 77.8 µg/mL; (bottle PP-2 (untreated polypropylene), time of storage 4 weeks) 65.1 µg/mL.

(Values after US20040079671A1, “Medicinal product packaging” (priority 2002, published 2004).)
